{"source": "PubChem BioAssay AID1259407", "about": "(Chemical Carcinogenesis Research Information System (CCRIS), 2018)", "tested_on": "CCRIS mutagenicity, Ames/micronucleus/aberration tests", "experiment": "CCRIS mutagenicity studies", "key": {"[1]": {"settings": "Test System: AMES SALMONELLA TYPHIMURIUM, Strain/Indicator: TA98, Metabolic Activation: NONE, Method: PREINCUBATION"}, "[2]": {"settings": "Test System: AMES SALMONELLA TYPHIMURIUM, Strain/Indicator: TA98, Metabolic Activation: NONE, Method: STANDARD PLATE"}, "[3]": {"settings": "Test System: AMES SALMONELLA TYPHIMURIUM, Strain/Indicator: TA98, Metabolic Activation: RAT, LIVER, S-9, AROCLOR 1254, Method: PREINCUBATION"}, "[4]": {"settings": "Test System: AMES SALMONELLA TYPHIMURIUM, Strain/Indicator: TA100, Metabolic Activation: NONE, Method: PREINCUBATION"}, "[5]": {"settings": "Test System: AMES SALMONELLA TYPHIMURIUM, Strain/Indicator: TA100, Metabolic Activation: NONE, Method: STANDARD PLATE"}, "[6]": {"settings": "Test System: AMES SALMONELLA TYPHIMURIUM, Strain/Indicator: TA100, Metabolic Activation: RAT, LIVER, S-9, AROCLOR 1254, Method: PREINCUBATION"}, "[7]": {"settings": "Test System: AMES SALMONELLA TYPHIMURIUM, Strain/Indicator: TA1535, Metabolic Activation: NONE, Method: STANDARD PLATE"}, "[8]": {"settings": "Test System: AMES SALMONELLA TYPHIMURIUM, Strain/Indicator: TA1537, Metabolic Activation: NONE, Method: STANDARD PLATE"}, "[9]": {"settings": "Test System: AMES SALMONELLA TYPHIMURIUM, Strain/Indicator: TA1538, Metabolic Activation: NONE, Method: STANDARD PLATE"}}, "note": "Active and inactive are the calls of the source. No rule for the calls is given here.", "data": [{"smiles": "C[C@]12CC[C@@H]3c4ccc(O)cc4CC[C@H]3[C@@]13CC[C@]2(O)[C@H](O)C3", "values": [{"measurement": "mutagenic call", "setting": "End Point: IN VITRO CHROMOSOMAL ABERRATIONS, Test System: HUMAN PERIPHERAL LYMPHOCYTES, Metabolic Activation: NONE", "value": "inactive; negative"}, {"measurement": "mutagenic call", "setting": "End Point: IN VITRO CHROMOSOMAL ABERRATIONS, Test System: HUMAN PERIPHERAL LYMPHOCYTES, Metabolic Activation: RAT, LIVER, S-9, AROCLOR 1254", "value": "inactive; negative"}, {"measurement": "mutagenic call", "setting": "[1]", "value": "inactive; negative"}, {"measurement": "mutagenic call", "setting": "[2]", "value": "inactive; negative"}, {"measurement": "mutagenic call", "setting": "[3]", "value": "inactive; negative"}, {"measurement": "mutagenic call", "setting": "Test System: AMES SALMONELLA TYPHIMURIUM, Strain/Indicator: TA98, Metabolic Activation: RAT, LIVER, S-9, AROCLOR 1254, Method: STANDARD PLATE", "value": "inactive; negative"}, {"measurement": "mutagenic call", "setting": "[4]", "value": "inactive; negative"}, {"measurement": "mutagenic call", "setting": "[5]", "value": "inactive; negative"}, {"measurement": "mutagenic call", "setting": "[6]", "value": "inactive; negative"}, {"measurement": "mutagenic call", "setting": "Test System: AMES SALMONELLA TYPHIMURIUM, Strain/Indicator: TA100, Metabolic Activation: RAT, LIVER, S-9, AROCLOR 1254, Method: STANDARD PLATE", "value": "inactive; negative"}, {"measurement": "mutagenic call", "setting": "Test System: AMES SALMONELLA TYPHIMURIUM, Strain/Indicator: TA1535, Metabolic Activation: NONE, Method: PREINCUBATION", "value": "inactive; negative"}, {"measurement": "mutagenic call", "setting": "[7]", "value": "inactive; negative"}, {"measurement": "mutagenic call", "setting": "Test System: AMES SALMONELLA TYPHIMURIUM, Strain/Indicator: TA1535, Metabolic Activation: RAT, LIVER, S-9, AROCLOR 1254, Method: PREINCUBATION", "value": "inactive; negative"}, {"measurement": "mutagenic call", "setting": "Test System: AMES SALMONELLA TYPHIMURIUM, Strain/Indicator: TA1535, Metabolic Activation: RAT, LIVER, S-9, AROCLOR 1254, Method: STANDARD PLATE", "value": "inactive; negative"}, {"measurement": "mutagenic call", "setting": "Test System: AMES SALMONELLA TYPHIMURIUM, Strain/Indicator: TA1537, Metabolic Activation: NONE, Method: PREINCUBATION", "value": "inactive; negative"}, {"measurement": "mutagenic call", "setting": "[8]", "value": "inactive; negative"}, {"measurement": "mutagenic call", "setting": "Test System: AMES SALMONELLA TYPHIMURIUM, Strain/Indicator: TA1537, Metabolic Activation: RAT, LIVER, S-9, AROCLOR 1254, Method: PREINCUBATION", "value": "inactive; negative"}, {"measurement": "mutagenic call", "setting": "Test System: AMES SALMONELLA TYPHIMURIUM, Strain/Indicator: TA1537, Metabolic Activation: RAT, LIVER, S-9, AROCLOR 1254, Method: STANDARD PLATE", "value": "inactive; negative"}, {"measurement": "mutagenic call", "setting": "Test System: AMES SALMONELLA TYPHIMURIUM, Strain/Indicator: TA1538, Metabolic Activation: NONE, Method: PREINCUBATION", "value": "inactive; negative"}, {"measurement": "mutagenic call", "setting": "[9]", "value": "inactive; negative"}, {"measurement": "mutagenic call", "setting": "Test System: AMES SALMONELLA TYPHIMURIUM, Strain/Indicator: TA1538, Metabolic Activation: RAT, LIVER, S-9, AROCLOR 1254, Method: PREINCUBATION", "value": "inactive; negative"}, {"measurement": "mutagenic call", "setting": "Test System: AMES SALMONELLA TYPHIMURIUM, Strain/Indicator: TA1538, Metabolic Activation: RAT, LIVER, S-9, AROCLOR 1254, Method: STANDARD PLATE", "value": "inactive; negative"}, {"measurement": "mutagenic call", "setting": "Test System: CHINESE HAMSTER V-79, Strain/Indicator: V-79 (HGPRT)/6-THIOGUANINE, Metabolic Activation: NONE", "value": "inactive; negative"}, {"measurement": "mutagenic call", "setting": "Test System: CHINESE HAMSTER V-79, Strain/Indicator: V-79 (HGPRT)/6-THIOGUANINE, Metabolic Activation: RAT, LIVER, S-9, AROCLOR 1254", "value": "inactive; negative"}]}, {"smiles": "Cc1ccc(NC(=O)N(C)C)cc1Cl", "values": [{"measurement": "mutagenic call", "setting": "Test System: AMES SALMONELLA TYPHIMURIUM, Strain/Indicator: TA98, Metabolic Activation: IMMATURE CARP LIVER S-9, 3-METHYLCHOLANTHRENE, Method: STANDARD PLATE", "value": "inactive; negative"}, {"measurement": "mutagenic call", "setting": "[2]", "value": "inactive; negative"}, {"measurement": "mutagenic call", "setting": "Test System: AMES SALMONELLA TYPHIMURIUM, Strain/Indicator: TA100, Metabolic Activation: IMMATURE CARP LIVER S-9, 3-METHYLCHOLANTHRENE, Method: STANDARD PLATE", "value": "inactive; negative"}, {"measurement": "mutagenic call", "setting": "[5]", "value": "inactive; negative"}]}, {"smiles": "CCCCOc1ccc2nc3cc(Cl)ccc3c(NCCCNCCCl)c2n1", "values": [{"measurement": "mutagenic call", "setting": "[2]", "value": "active; positive"}, {"measurement": "mutagenic call", "setting": "[5]", "value": "inactive; negative"}, {"measurement": "mutagenic call", "setting": "[7]", "value": "inactive; negative"}, {"measurement": "mutagenic call", "setting": "Test System: AMES SALMONELLA TYPHIMURIUM, Strain/Indicator: TA1536, Metabolic Activation: NONE, Method: STANDARD PLATE", "value": "active; positive"}, {"measurement": "mutagenic call", "setting": "[8]", "value": "active; positive"}, {"measurement": "mutagenic call", "setting": "[9]", "value": "active; positive"}]}, {"smiles": "Cc1nccc2c1[nH]c1ccccc12", "values": [{"measurement": "mutagenic call", "setting": "Test System: AMES SALMONELLA TYPHIMURIUM, Strain/Indicator: TA97, Metabolic Activation: NONE, Method: PREINCUBATION", "value": "active; positive"}, {"measurement": "mutagenic call", "setting": "Test System: AMES SALMONELLA TYPHIMURIUM, Strain/Indicator: TA97, Metabolic Activation: RAT, LIVER, S-9, AROCLOR 1254, Method: PREINCUBATION", "value": "inactive; negative"}, {"measurement": "mutagenic call", "setting": "[1]", "value": "inactive; negative"}, {"measurement": "mutagenic call", "setting": "[3]", "value": "inactive; negative"}, {"measurement": "mutagenic call", "setting": "[4]", "value": "inactive; negative"}, {"measurement": "mutagenic call", "setting": "[6]", "value": "inactive; negative"}, {"measurement": "mutagenic call", "setting": "Test System: AMES SALMONELLA TYPHIMURIUM, Strain/Indicator: TA102, Metabolic Activation: NONE, Method: PREINCUBATION", "value": "inactive; negative"}, {"measurement": "mutagenic call", "setting": "Test System: AMES SALMONELLA TYPHIMURIUM, Strain/Indicator: TA102, Metabolic Activation: RAT, LIVER, S-9, AROCLOR 1254, Method: PREINCUBATION", "value": "inactive; negative"}]}]}
